Assay results: patent US20230094545A1, “S1P RECEPTOR MODULATORS” (AKAAL PHARMA PTY LTD, priority 2020, published 2023)
Several values for one entry are separate records, joined by “and”; a condition that tells them apart may be missing. Equal values may be shown once. Entries after “also recorded” stand apart in the source; their conditions may differ.

Key:
[1] = target: S1P1 receptor (Homo sapiens, UniProt P21453); experiment: S1P1 receptor degradation (activity v/s degradation margin); format: cell-based
Sequence of S1P1 receptor (P21453 whole entry): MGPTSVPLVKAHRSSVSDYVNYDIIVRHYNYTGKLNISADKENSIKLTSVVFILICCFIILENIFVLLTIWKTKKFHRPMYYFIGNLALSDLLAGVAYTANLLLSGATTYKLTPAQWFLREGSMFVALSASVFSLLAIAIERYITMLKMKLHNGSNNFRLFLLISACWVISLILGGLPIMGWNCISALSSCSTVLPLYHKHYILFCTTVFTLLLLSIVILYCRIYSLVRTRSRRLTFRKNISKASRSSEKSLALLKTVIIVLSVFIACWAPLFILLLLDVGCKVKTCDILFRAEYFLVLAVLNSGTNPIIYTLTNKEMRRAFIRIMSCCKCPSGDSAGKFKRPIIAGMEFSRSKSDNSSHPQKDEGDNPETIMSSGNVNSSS

[2] = 8 mg daily oral dosing for 7 days in healthy human subjects: systemic exposure, lymphocyte counts; format: in vivo
Description: One cohort (8 human subjects) was treated daily with 8 mg oral dosing for 7 consecutive days.

[3] = system: excision wound; experiment: Animal model of excision wound; format: in vivo, Wistar rats; conditions: 3% w/w ointment, 0.20 g/animal wound, topically twice daily
Description: Two groups with six Wistar rats in each group were anaesthetized with a dose of 80 mg/kg of ketamine (i.p.) and the back of the animals were shaved. One excision wound was inflicted by cutting away (with a sterile scalpel) a 600-700 mm^2 section of the full thickness of the skin from a predetermined area. The wound was left undressed to the open environment. Group 1 rats were untreated and served as sham control. Group 2 animals were treated with a compound of Formula I in an ointment formulation (3% w/w). The ointment (0.20 g/animal wound) was applied topically twice daily.

[4] = system: microglial (BV2 cells) and macrophages (Raw cells); experiment: LPS-treated microglial and macrophage cells, cytokines by ELISA; format: cell-based; conditions: 1-5 μg/mL, 4 hrs prior to LPS 500 ng/mL, p<0.05
Description: Treatment of a compound of formula (I) (1-5 μg/mL) to the cultured microglial (BV2 cells) and macrophages (Raw cells) was made 4 hrs prior to treatment with lipopolysaccharide (LPS) at 500 ng/mL. After 16-18 hr of drug treatment the cytokines (TNFα, IL1β and IL6) were measured in culture media by ELISA and expression levels of cyclooxygenase2 (Cox-2), inducible […] (iNOS) or beta actin were analysed in cell homogenates by western analysis.

[5] = system: experimental autoimmune encephalomyelitis (EAE); experiment: EAE model, RT-PCR for IL-31, IL1β and IFNγ in spleen; format: in vivo; conditions: 3 mg/kg from 11th day, Day 27
Description: The efficacy of the compound of formula (I) was assessed in an animal model of experimental autoimmune encephalomyelitis (EAE), which is a widely-accepted model of demyelinating diseases such as MS. The cDNA was prepared from spleen obtained from Vehicle treated (Control), EAE induced (no treatment) and EAE induced (a compound of formula (I) treated) animals (n=5 each group) at the recovery (Day 27 from 1st day of MBP immunization). The treatment with a compound of Formula I (3 mg/kg) was initiated on the 11th day from MBP immunization. cDNA was synthesized using Bio-Rad cDNA synthesis kit. RT-PCR was performed for IL-31, IL1β and IFNγ. Primers were obtained from Qiagen and the samples were analysed on Bio-Rad CFX96Real-Time System. […] Statistical Significance of the data is represented by p value. *denotes p≤0.05, **denotes p≤0.01.

[6] = system: atopic dermatitis and psoriasis disease models; experiment: Atopic dermatitis and psoriasis disease models, cytokines; conditions: in vivo
[7] = system: EAE; experiment: Animal model of multiple sclerosis (EAE induced with guinea pig MBP); format: in vivo, Lewis rats; conditions: EAE rats, oral every day until day 26
Description: The oral treatment with a compound of formula (I) was conducted in an animal model of multiple sclerosis. EAE was induced in female Lewis rats with guinea pig MBP (25 μg/rat).

[8] = system: dinitrofluorobenzene (DNFB)-induced delayed-type hypersensitivity; experiment: DNFB-induced delayed-type hypersensitivity (DTH); format: in vivo; conditions: 3 mg/kg twice daily
Description: The efficacy of compound of formula (I) was determined in an animal model of dinitrofluorobenzene (DNFB)-induced delayed-type hypersensitivity (DTH), an inflammatory model. The animals (n=9) were treated with the vehicle or a compound of formula (I), receiving a twice daily dose of 3 mg/kg. The efficacy end points were measured as Ear thickness before challenge and 24 h after challenge. Ear weight was measured 24 h after challenge. At sacrifice, right ear samples were collected and used for tissue MPO activity.

[9] = system: LPS mediated systemic inflammation; experiment: LPS-induced sepsis model; format: in vivo, Sprague-Dawley rats; conditions: 3 mg/Kg oral 1 h after LPS and every 24 h
Description: Sepsis was induced in female Sprague-Dawley rats by LPS (5 mg/kg) administration and treated orally with compound of Formula I (3 mg/Kg) 1 h after and every 24 h thereafter to determine the effect of a compound of formula (I) in this animal model of sepsis (LPS mediated systemic inflammation). Animals were sacrificed at 24 and 72h post LPS treatment.

[10] = system: burn wound and scratch wounds; experiment: Topical formulation in wound patients (case reports); format: in vivo, human
Description: A patient presented with a second degree burn wound on the inner surface of their middle finger of their left hand, suffering from swelling, blistering and pain at the site of injury. A topical gel formulation of compound of formula (I) was applied topically to the site of injury.
A patient presented with a scratch wounds on hands while cleaning gutters. These become inflamed and painful in 3 hours.

[11] = Solubility in water / precipitation in buffer; format: physicochemical; conditions: listed as compound of formula I
Description: To solubilize the free base in water the novel technology AvignaSOL (N,N-Dimethyl hexanamide; patent number: U.S. Pat. No. 9,186,338B2) and its higher derivatives such as octinamide, decamide which improve the absorption of various poorly soluble drugs was used. AvignaSOL as 1-70% ww % assisted the solubilization of free base as 1 gm/20 mL of water. The solubility of free base in water assisted its direct use in various formulation such as creams, gels, solutions which together with the permeation enhancing effect will be harnessed to improve skin penetration and/or bioavailability and in altering the pharmacokinetics and pharmacodynamics profile of free base.
The AvignaSOL having a log P of ˜1.6 hinder the release by increasing the hydrophobicity of the delivery system. […] The combination of compound of formula I with other ingredients including sustained release enhancer with or without AvignaSOL were prepared as novel formulation techniques to improve and/or alter the pharmacokinetics and pharmacodynamics profile of compound of Formula I.

[12] = individual healthy human subjects, 8 mg oral daily for 7 days, listed as compound of formula (1)

Compound: CCCOc1ccc(-c2nc(-c3ccc4oc(C(N)(CO)CO)cc4c3)no2)cc1Cl [compound of formula (I)]
- activity v/s degradation margin [1]: greater than 100
- bradycardia and lymphopenia ([2]; 2 g daily topical 3% ww for 3 weeks and oral 8 mg daily for one week): without event of bradycardia and significant lymphopenia
- concentration at 7 days ([2]; human, in vivo, po, 8 mg daily, humans, 8 mg oral daily for 7 days): ~53 ng/mL
- measured lymphopenia ([2]; humans, 8 mg daily dosing for one week): up to 40%
- lymphopenia ([2]; humans, 8 mg oral daily for 7 consecutive days): mild lymphopenia
- systemic exposure (mean / average) ([2]; humans, 8 mg oral daily for 7 days): 53.3 ng/mL
- ALC Change (%) [2, 12]: −33.33% and −27.66% and −35.71% and 0% and +40% and −22.58% and −15.56% and −20%
- CD3 Change (%) [2, 12]: −18.75% and −30.32% and −30.58% and −0.6% and −12.58% and −5.77% and −12.36% and −11.86%
- CD4 Change (%) [2, 12]: −22.41% and −33.62% and −32% and −5.2% and −10.91% and −8.21% and −25.3% and −7.87%
- CD8 Change (%) [2, 12]: −19.05% and −27.87% and −31.74% and −1.67% and −13.79% and 0% and −7.06% and −11.86%
- wound healing [3]: did not inhibit or impair the wound healing
- proinflammatory cytokines (TNFα, IL1β and IL6) [4]: significant reduction of proinflammatory cytokines
- markers of inflammation (IL-31, IL1β, IFNγ, RT-PCR, spleen) [5]: significantly reduced markers of inflammation
- cytokines IL17, IL23, IL2 [6]: downregulates the cytokines IL17, IL23, IL2
- lymphopenia [7]: lymphopenia was less; also recorded: short-term and quickly reversed
- MPO activity (ear tissue) [8]: significantly reduced
- reduction of ear thickness ([8]; 24 h after challenge, p<0.0001): ~70%
- reduction of ear weight ([8]; 24 h after challenge, p<0.01): ~50%
- body temperature and organ histopathology [9]: positive impact on the body temperature and organ histopathology
- adverse side effects ([10]; both cases): No adverse side effects
- swelling and pain of scratch wounds ([10]; ointment formulation, one patient): swelling and pain reduced dramatically
- swelling and blistering of burn wound ([10]; topical gel formulation, after 10 minutes, one patient): swelling and blistering had visibly reduced dramatically
- pain of burn wound ([10]; topical gel formulation, one patient): significant pain relief
- solubility in water [11]: soluble in water
